Experimental data as given in ChEMBL document CHEMBL1151528, “The synthesis of heterosubstituted benzimidazole derivatives with potent angiotensin II antagonist activity” (Bioorg Med Chem Lett, 1993).

What was measured:
[1] = target: Angiotensin II receptor (Rattus norvegicus) (UniProt P29089+P25095+P35351); test: Inhibition of pressor response induced by Angiotensin II in Alderley Park Wistar rats after single intravenous dose; type: functional
[2] = target: angiotensin II receptor (Cavia porcellus); test: Displacement of monoiodinated angiotensin II from guinea-pig adrenal gland angiotensin II receptor

ED50 [1] [mg/kg] | IC50 [2] [µM] | SMILES
5.2 | 10 | CCCCc1nc2cnncc2n1Cc1ccc(-c2ccccc2C(=O)O)cc1
47 | 10 | CCCCc1nc2cnn(C)c(=O)c2n1Cc1ccc(-c2ccccc2C(=O)O)cc1
– | 100 | CCCCc1nc2cnn(Cc3ccc(-c4ccccc4C(=O)OC)cc3)cc-2n1
0.35 | 0.016 | CCCCc1nc2ccnc(O)c2n1Cc1ccc(-c2ccccc2-c2nn[nH]n2)cc1
0.62 | 0.022 | CCCCc1nc2cnnc(O)c2n1Cc1ccc(-c2ccccc2-c2nn[nH]n2)cc1
0.04 | – | CCCCc1nc2c(=O)[nH][nH]c(=O)c2n1Cc1ccc(-c2ccccc2-c2nn[nH]n2)cc1
0.22 | – | CCc1nc2c(C)cc(C)nc2n1Cc1ccc(-c2ccccc2-c2nn[nH]n2)cc1
6.7 | – | CCCCc1nc2cnnc(O)c2n1Cc1ccc(-c2ccccc2C(=O)O)cc1
5.2 | – | CCCCc1nc2ccccc2n1Cc1ccc(-c2ccccc2-c2nn[nH]n2)cc1
0.65 | – | CCCCc1nc(Cl)c(CO)n1Cc1ccc(-c2ccccc2-c2nnn[nH]2)cc1
– | 0.255 | CCCCc1nc(C(=O)OCC)c(C(=O)OCC)n1Cc1ccc(-c2ccccc2-c2nn[nH]n2)cc1
